Laboratory results reported in patent publication US4839465A, “Di-(D-tryptophyl and/or tetrahydropyridoindolylcarbonyl)-containing peptide amides and process for preparation thereof” (Sterling Drug Inc., priority 1987, dated 1989).
pEC50, pKd: −log10 of the molar value. Like-named read-outs stand apart in the source and are kept apart here. Where a SMILES comes first, the peptide text is derived from it. [ ]: non-standard residue; d: D form. Tpi = O=C(O)[C@@H]1Cc2c([nH]c3ccccc23)CN1; dTpi = O=C(O)[C@H]1Cc2c([nH]c3ccccc23)CN1

Columns and labels:
[1] = tested on: Substance P effect in isolated guinea pig ileum longitudinal muscle; experiment: Guinea pig ileum test, Substance P agonist and antagonist effect; format: cell-based
Experimental: Strips of longitudinal muscle (derived from terminal ileum of adult male guinea pigs (Charles River, 400-600 g.) are mounted in 5-ml. organ baths containing oxygenated Krebs solution containing 1 μM each of atropine and pyrilamine maintained at 30°-33° C. and connected to isometric transducers. Following tissue equilibration and repeated washing (45-60 min.), SP or an appropriate reference agonist is added cumulatively to the bath and contractions of the tissue are recorded. The bath is washed thoroughly and 30-45 min. is allowed to elapse before construction of a second reference agonist curve to assure reproducibility of the responses. Test compounds are similarly evaluated for agonist activity up to a maximum concentration of 10-100 μM. Regression analysis of the linear portion of the log concentration-percent maximal response curves provides the EC50 (and 95% confidence limits), the standard measure of agonist potency. When appropriate, relative molar potency ratios are calculated (EC50 reference/ED50 test drug). Antagonist activity is examined by pretreating thoroughly washed tissues with test compound (using a standard 5-10 min. contact time), then constructing a cumulative dose-response curve to the reference agonist. The effects of several concentrations of test antagonist, pooled across separate experiments, provide dose-ratio (EC50 shift) data for a standard Schild plot analysis, with computation of the pA2.

[2] = molecular target: T1, SP receptor (rat brain tissue) (Rattus norvegicus, UniProt P14600); experiment: Rat brain tissue 3H-SP competitive binding; conditions: for pKd: crude rat brain tissue, 3H-SP, read-out: Substance P Competitive Binding KD; for effect on 3H-SP binding: specificity and sensitivity of the binding assay, rat brain tissue
T1 construct: from tissue; host or cells: crude rat brain tissue
Experimental: Crude rat brain tissue is suspended in buffer containing protease inhibitors and calcium ions and magnesium ions and incubated under nitrogen atmosphere with ^3 H-SP and test compound. The bound SP is then separated from free SP by filtration and quantitated by liquid scintillation spectroscopy. This test meets the criteria of reversibility,saturability, sensitivity to known SP agonists and antagonists, and specificity for an SP receptor binding assay.
With regard to reversibility, addition of unlabelled SP causes a gradual decrease in bound ^3 H-SP, showing that SP is not irreversibly bound to the receptors in the tissue. With regard to saturability, the amount of bound ^3 H-SP in the preparation increases in direct proportion to the concentration of ^3 H-SP added until a saturation point is reached. […] With regard to sensitivity, known SP agonists and antagonists inhibit ^3 H-SP binding.
The results are expressed in terms of the equilibrium constant KD in nanomoles per liter (nM), which takes into account the concentration of ^3 H-SP.

gastric juice secretion = conditions: in vivo; cited from earlier work
[3] = tested on: acetylcholine-induced writhing; experiment: Mouse acetylcholine-induced writhing test; format: in vivo; conditions: intrathecal, acetylcholine 3.2 mg./kg. i.p. five minutes after injection
Experimental: Male Swiss-Webster mice (18-24 g.) are divided into groups of 8-15 mice. A test compound in a vehicle or the vehicle alone is administered intrathecally in a volume of 5 μl by the method of Hylden and Wilcox (European Journal of Pharmacology, vol. 67, pp. 313-316, 1980) except that caudal cutaneous incision is not performed prior to injection. Five minutes after the injection a solution of acetylcholine (3.2 mg./kg., the approximate ED90) in 0.9% aqueous sodium chloride is administered intraperitoneally to each mouse. […] For test compounds which produce a graded dose-response ED50 values with 95% confidence limits are determined by probit analysis of the data.

[4] = Schild plot, 5-10 min. contact time, guinea pig ileum longitudinal muscle

T1 sequence (P14600 whole entry): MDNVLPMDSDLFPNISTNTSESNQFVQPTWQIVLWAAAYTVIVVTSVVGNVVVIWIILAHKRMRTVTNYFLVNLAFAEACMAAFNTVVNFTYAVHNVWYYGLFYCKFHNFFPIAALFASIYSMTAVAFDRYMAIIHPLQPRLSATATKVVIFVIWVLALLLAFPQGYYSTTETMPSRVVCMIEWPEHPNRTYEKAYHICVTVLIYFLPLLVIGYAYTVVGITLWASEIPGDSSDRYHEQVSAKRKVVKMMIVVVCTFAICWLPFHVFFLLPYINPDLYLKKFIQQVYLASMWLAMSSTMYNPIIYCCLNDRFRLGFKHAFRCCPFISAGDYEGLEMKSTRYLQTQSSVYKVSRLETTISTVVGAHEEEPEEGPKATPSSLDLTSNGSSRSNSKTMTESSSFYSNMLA

Row | Compound | Substance P Antagonist pA2 [1, 4] | pKd [2] | also measured
1 | CC(C)C[C@H](NC(=O)[C@@H](Cc1c[nH]c2ccccc12)NC(=O)[C@H](Cc1ccccc1)NC(=O)[C@@H](Cc1c[nH]c2ccccc12)NC(=O)[C@@H]1CCCN1)C(=O)N[C@@H](Cc1ccccc1)C(N)=O [Example 2, H--Pro--trp--Phe--trp--Leu--Phe--NH2] (H-P[dW]F[dW]LF-NH2) | 6.4 | 7.66 | 
2 | CSCC[C@H](NC(=O)[C@H](CC(C)C)NC(=O)[C@@H](Cc1c[nH]c2ccccc12)NC(=O)[C@H](Cc1ccccc1)NC(=O)[C@@H]1Cc2c([nH]c3ccccc23)CN1)C(N)=O [Example 5, H--Tpi--Phe--trp--Leu--Met--NH2] (H-[Tpi]F[dW]LM-NH2) |  | 7.23 | 
3 | CC(C)C[C@H](NC(=O)[C@@H](Cc1c[nH]c2ccccc12)NC(=O)[C@H](Cc1ccccc1)NC(=O)[C@H]1Cc2c([nH]c3ccccc23)CN1)C(=O)N[C@@H](Cc1ccccc1)C(N)=O [Example 9, H--tpi--Phe--trp--Leu--Phe--NH2] (H-[dTpi]F[dW]LF-NH2) |  |  | Substance P Antagonist pA2 [1]: 6.65
4 | COc1cc(CNC(=O)CCCC/C=C/C(C)C)ccc1O [capsaicin, reference compound] |  |  | effect on 3H-SP binding [2]: do not affect
5 | CC(C)C[C@H](NC(=O)[C@@H](Cc1c[nH]c2ccccc12)NC(=O)[C@H](Cc1ccccc1)NC(=O)[C@@H](Cc1c[nH]c2ccccc12)NC(=O)[C@@H]1CCCN1)C(N)=O [Example 3, H--Pro--trp--Phe--trp--Leu--NH2] (H-P[dW]F[dW]L-NH2) | 5.1 | 7.46 | 
6 | CSCC[C@H](NC(=O)[C@H](CC(C)C)NC(=O)[C@@H](Cc1c[nH]c2ccccc12)NC(=O)[C@H](Cc1ccccc1)NC(=O)[C@H](N)Cc1c[nH]c2ccccc12)C(N)=O [Example 1, H--trp--Phe--trp--Leu--Met--NH2] (H-[dW]F[dW]LM-NH2) |  |  | pEC50 [1]: < 6.00; Substance P agonist activity ([1]; guinea pig ileum, not quantified): Some agonist activity was noted
7 | CC(C)C[C@H](NC(=O)[C@H]1Cc2c([nH]c3ccccc23)CN1C(=O)[C@H](Cc1ccccc1)NC(=O)[C@@H](Cc1c[nH]c2ccccc12)NC(=O)[C@@H]1CCCN1)C(=O)N[C@@H](Cc1ccccc1)C(N)=O [Example 6, H--Pro--trp--Phe--tpi--Leu--Phe--NH2] (H-P[dW]F[dTpi]LF-NH2) | 6.4 | 7.41 | 
8 | Z--Tca--Met--Asp--Phe--NH2 [Tca-tetragastrin] |  |  | gastric juice stimulating activity (gastric juice secretion): having gastric juice stimulating activity
9 | CC(C)C[C@H](NC(=O)[C@@H](Cc1c[nH]c2ccccc12)NC(=O)[C@H](Cc1ccccc1)NC(=O)[C@H](N)Cc1c[nH]c2ccccc12)C(=O)N[C@@H](Cc1ccccc1)C(N)=O [Example 8, H--trp--Phe--trp--Leu--Phe--NH2] (H-[dW]F[dW]LF-NH2) |  |  | Substance P Antagonist pA2 [1]: 6.28
10 | CSCC[C@H](NC(=O)[C@H](CC(C)C)NC(=O)[C@@H](Cc1c[nH]c2ccccc12)NC(=O)[C@H](Cc1ccccc1)NC(=O)[C@H]1Cc2c([nH]c3ccccc23)CN1)C(N)=O [Example 4, H--tpi--Phe--trp--Leu--Met--NH2] (H-[dTpi]F[dW]LM-NH2) | 6.4 | 7.38 | ED50, protection against acetylcholine-induced writhing [3]: 0.7 μg/mouse
11 | NCC(CC(=O)O)c1ccc(Cl)cc1 (stereo not drawn) [baclofen, reference compound] |  |  | effect on 3H-SP binding [2]: do not affect
12 | H--Tpi--Bpa--trp--Leu--Phe--NH2 H--Tpi--bpa--trp--Leu--Phe--NH2 (mixture of isomers) [Example 7, H--Tpi--Bpa--trp--Leu--Phe--NH2 H--Tpi--bpa--trp--Leu--Phe--NH2 (mixture of isomers)] | 6.25 |  | 
